According to the NIST ThermoML archive (doi:10.1021/je7004374):

Experiments:
[1] = Liquid
[2] = refractive index (Na D-line) (dimensionless); settings: 298.15 K; 101.33 kPa; Liquid; Standard Abbe refractometry

CC(O)CO (centres undefined) [1,2-propanediol]
[1]
Settings | mass density [kg/m3]
283.16 K, 101.33 kPa | 1043.43
288.15 K, 101.33 kPa | 1039.84
293.15 K, 100 kPa | 1036.22
293.15 K, 10000 kPa | 1040.95
293.15 K, 20000 kPa | 1045.52
293.15 K, 30000 kPa | 1049.89
293.15 K, 40000 kPa | 1054.08
293.15 K, 50000 kPa | 1058.13
293.15 K, 60000 kPa | 1062.03
293.15 K, 70000 kPa | 1065.8
293.15 K, 80000 kPa | 1069.46
293.15 K, 90000 kPa | 1073.01
293.15 K, 100000 kPa | 1076.45
293.16 K, 101.33 kPa | 1036.21
298.15 K, 100 kPa | 1032.55
298.15 K, 10000 kPa | 1037.38
298.15 K, 20000 kPa | 1042.03
298.15 K, 30000 kPa | 1046.08
298.15 K, 40000 kPa | 1050.75
298.15 K, 50000 kPa | 1054.86
298.15 K, 60000 kPa | 1058.82
298.15 K, 70000 kPa | 1062.66
298.15 K, 80000 kPa | 1066.37
298.15 K, 90000 kPa | 1069.96
298.15 K, 100000 kPa | 1073.46
298.16 K, 101.33 kPa | 1032.54
303.15 K, 100 kPa | 1028.84
303.15 K, 10000 kPa | 1033.77
303.15 K, 20000 kPa | 1038.51
303.15 K, 30000 kPa | 1043.04
303.15 K, 40000 kPa | 1047.38
303.15 K, 50000 kPa | 1051.56
303.15 K, 60000 kPa | 1055.59
303.15 K, 70000 kPa | 1059.48
303.15 K, 80000 kPa | 1063.24
303.15 K, 90000 kPa | 1066.89
303.15 K, 100000 kPa | 1070.44
303.16 K, 101.33 kPa | 1028.83
308.15 K, 100 kPa | 1025.1
308.15 K, 101.33 kPa | 1025.09
308.15 K, 10000 kPa | 1030.12
308.15 K, 20000 kPa | 1034.95
308.15 K, 30000 kPa | 1039.56
308.15 K, 40000 kPa | 1043.98
308.15 K, 50000 kPa | 1048.23
308.15 K, 60000 kPa | 1052.32
308.15 K, 70000 kPa | 1056.27
308.15 K, 80000 kPa | 1060.1
308.15 K, 90000 kPa | 1063.8
308.15 K, 100000 kPa | 1067.39
313.15 K, 100 kPa | 1021.31
313.15 K, 101.33 kPa | 1021.3
313.15 K, 10000 kPa | 1026.44
313.15 K, 20000 kPa | 1031.36
313.15 K, 30000 kPa | 1036.06
313.15 K, 40000 kPa | 1040.55
313.15 K, 50000 kPa | 1044.87
313.15 K, 60000 kPa | 1049.03
313.15 K, 70000 kPa | 1053.04
313.15 K, 80000 kPa | 1056.92
313.15 K, 90000 kPa | 1060.68
313.15 K, 100000 kPa | 1064.32
318.15 K, 100 kPa | 1017.48
318.16 K, 101.33 kPa | 1017.48
323.15 K, 101.33 kPa | 1013.61
328.16 K, 101.33 kPa | 1009.71
333.15 K, 101.33 kPa | 1005.76
338.16 K, 101.33 kPa | 1001.77
343.15 K, 101.33 kPa | 997.745
348.15 K, 101.33 kPa | 993.675
353.15 K, 101.33 kPa | 989.56
358.15 K, 101.33 kPa | 985.405
363.15 K, 101.33 kPa | 981.219

[1]
Settings | speed of sound [m/s]
292.87 K, 45590 kPa, Sing-around technique in a fixed-path interferometer | 1674.4
292.87 K, 60790 kPa, Sing-around technique in a fixed-path interferometer | 1717.8
292.87 K, 101320 kPa, Sing-around technique in a fixed-path interferometer | 1821.9
292.88 K, 15200 kPa, Sing-around technique in a fixed-path interferometer | 1578.7
292.88 K, 30390 kPa, Sing-around technique in a fixed-path interferometer | 1628.5
292.88 K, 75990 kPa, Sing-around technique in a fixed-path interferometer | 1758.5
292.88 K, 91180 kPa, Sing-around technique in a fixed-path interferometer | 1797.3
292.92 K, 100 kPa, Sing-around technique in a fixed-path interferometer | 1523.1
293.15 K, 101.33 kPa, Pulse-echo method | 1522.4
298.15 K, 101.33 kPa, Pulse-echo method | 1508.4
298.15 K, 45590 kPa, Sing-around technique in a fixed-path interferometer | 1661.6
298.15 K, 60790 kPa, Sing-around technique in a fixed-path interferometer | 1705.2
298.15 K, 75990 kPa, Sing-around technique in a fixed-path interferometer | 1746.5
298.16 K, 15200 kPa, Sing-around technique in a fixed-path interferometer | 1564.2
298.16 K, 30390 kPa, Sing-around technique in a fixed-path interferometer | 1615.1
298.16 K, 91180 kPa, Sing-around technique in a fixed-path interferometer | 1785.6
298.16 K, 101320 kPa, Sing-around technique in a fixed-path interferometer | 1810.5
298.2 K, 100 kPa, Sing-around technique in a fixed-path interferometer | 1508.3
303.13 K, 60790 kPa, Sing-around technique in a fixed-path interferometer | 1693.5
303.13 K, 101320 kPa, Sing-around technique in a fixed-path interferometer | 1799.9
303.14 K, 15200 kPa, Sing-around technique in a fixed-path interferometer | 1551
303.14 K, 30390 kPa, Sing-around technique in a fixed-path interferometer | 1602.4
303.14 K, 45590 kPa, Sing-around technique in a fixed-path interferometer | 1649.6
303.14 K, 75990 kPa, Sing-around technique in a fixed-path interferometer | 1735.4
303.14 K, 91180 kPa, Sing-around technique in a fixed-path interferometer | 1774.8
303.15 K, 101.33 kPa, Pulse-echo method | 1494.3
303.18 K, 100 kPa, Sing-around technique in a fixed-path interferometer | 1494.2
308.12 K, 60790 kPa, Sing-around technique in a fixed-path interferometer | 1682
308.12 K, 75990 kPa, Sing-around technique in a fixed-path interferometer | 1724.1
308.12 K, 91180 kPa, Sing-around technique in a fixed-path interferometer | 1764
308.12 K, 101320 kPa, Sing-around technique in a fixed-path interferometer | 1789.3
308.13 K, 15200 kPa, Sing-around technique in a fixed-path interferometer | 1537.7
308.13 K, 30390 kPa, Sing-around technique in a fixed-path interferometer | 1589.5
308.13 K, 45590 kPa, Sing-around technique in a fixed-path interferometer | 1637.6
308.15 K, 101.33 kPa, Pulse-echo method | 1480.2
308.17 K, 100 kPa, Sing-around technique in a fixed-path interferometer | 1480.1
313.15 K, 101.33 kPa, Pulse-echo method | 1466
313.31 K, 15200 kPa, Sing-around technique in a fixed-path interferometer | 1524.2
313.31 K, 30390 kPa, Sing-around technique in a fixed-path interferometer | 1576.4
313.31 K, 45590 kPa, Sing-around technique in a fixed-path interferometer | 1625
313.31 K, 60790 kPa, Sing-around technique in a fixed-path interferometer | 1669.9
313.31 K, 75990 kPa, Sing-around technique in a fixed-path interferometer | 1712.6
313.31 K, 91180 kPa, Sing-around technique in a fixed-path interferometer | 1752.8
313.31 K, 101320 kPa, Sing-around technique in a fixed-path interferometer | 1778.5
313.35 K, 100 kPa, Sing-around technique in a fixed-path interferometer | 1465.4

Settings | refractive index
[2] | 1.431
